Read-outs that look alike come from different tables or passages of the source. Where no end group is shown, it is not given here.
Key:
[1] = test system: in vitro BBB model: primary bovine brain capillary endothelial cells supported by primary rat glial cells
[2] = test system: in vitro BBB model: primary bovine brain capillary endothelial cells supported by primary rat glial cells; experiment: In vitro BBB model transcytosis of trypsin-digested sMTf, peptides identified by mass spectrometry; details: for Ablum 120:Area: MS peak area in abluminal compartment at 120 min; for Ablum 120:Area / Lum 120:Area: trypsin-digested sMTf 0.25 mg/mL luminal, Ringer-HEPES, 37°C, 2 h, LC-MS, one peptide may have several lines; for Lum 120:Area: MS peak area in luminal compartment at 120 min; for presence of MTf fragments on the abluminal side: after 2 h, SDS-PAGE and/or mass spectrometry
[3] = test system: in vitro BBB model: primary bovine brain capillary endothelial cells supported by primary rat glial cells; remark: listed apart in the source
[4] = mouse, in vivo, iv
[5] = stable isotopic LC-MS; ref Singh et al., 2020; cited from earlier work
From the text: In the context of the present study, the variability in conformation, glycosylation, anchoring and metal binding, presents potential complications to the use of sMTf as a robust, reproducible, clinically useful drug delivery vehicle. Therefore, to improve upon the utility of sMTf as a drug-delivery vector, we fragmented the protein in order to identify the minimally active region that retains the capability of carrying molecular cargo across the BBB. We report the identification of a 12 amino acid peptide (MTfp; […]), derived from melanotransferrin protein, that retains the ability cr ...

[6] = test system: neurons, astrocytes, microglia, lysosomes, endosomes in the brain; experiment: Cellular and subcellular localization of MTfp in mouse brain, 3D confocal microscopy; format: in vivo; details: mice injected IV with Cy5-MTfp
Protocol: Three sets of 3D fluorescence microscopy experiments were performed. The first set measured the BBB penetration of Cy5 tagged MTfp using DeltaVision Elite integrated with Huygens Deconvolution Software (GE, United States). As an extension of this, a set of sections were prepared to assess the cellular localization of the Cy-5 tagged MTfp in the CNS. The second set of experiments addressed the localization of Cy-5 tagged MTfp in various cell types and subcellular objects using the Leica SP8 X system (Leica, Germany).
The brains were removed and fixed with 4% paraformaldehyde overnight and then transferred into PBS+0.01% sodium azide and stored at 4°C. The brains were embedded in 4% agarose, fixed onto the microtome stage and sectioned (20 μm) at 4°C. The sections were stained with DAPI and then mounted on microscopic slides. Glass coverslips were mounted on the sections using Prolong Gold antifade reagent. In another experiment, to assess the localization of the peptide in the CNS, brains from mice injected with either PBS or Cy5-MTfp followed by FITC- tomato lectin. The brains were collected and processed as stated above. These were then incubated with antibodies targeted against neurons (NeuN; ab177487), microglia (TMEM; ab209064), astrocytes (GFAP; ab7260), lysosomes (LAMP-1; sc-19992-AF546) and endosomes (EEA-1; sc-137130), secondary antibody staining was done for unconjugated primary antibodies with Alexa fluor 680 goat anti-mouse IgG (cat# A21058), Alexa fluor 680 goat anti-rabbit IgG (Cat #A21076) and then counter-stained with DAPI, cover slipped, imaged and quantitatively analyzed to determine the extent of localization of various cell types and subcellular objects with MTfp.
The microscopy experiments, which quantitatively assessed the cellular location of MTfp within the brain, were performed using Leica SP8 X system (Leica, Germany). 3D confocal images were acquired with a Leica AOBS SP8 laser scanning confocal microscope (Leica, Heidelberg, Germany) using a high-resolution Leica 63X/1.4 or 40X/1.3 Plan-Apochromat oil immersion objective lens. Excitations were performed using either diode or tunable white light laser sources. All images and spectral data (except DAPI) were generated using the highly sensitive HyD detectors (with gated option) in de-scanned mode. The backscattered emission signals from the sample were delivered through the tunable filter (AOBS), the detection pinhole, spectral dispersion prism, and finally to the PMT/HyD detectors. For 3D image data set acquisition, the excitation beam was first focused at the maximum signal intensity focal position within the brain tissue sample and the appropriate HyD gain levels were then selected to obtain the pixel intensities within range of 0–255 (8-bit images) using a color gradient function. The beginning and end of the 3D stack were set based on the signal level degradation. Series of 2D images for a selected 3D stack volume were then acquired with 1,024 × 1,024 pixels. […]
For each tissue volume reported here, z-section images were compiled and finally the 3D image restoration was performed using VOLOCITY software (Perkin Elmar, United Kingdom). The volume estimation was performed on the 3D image data sets recorded from four or more cortical area of brain tissue samples. Algorithms were developed to automate the quantification of the test materials and blood capillaries, and to accurately quantify test materials localized in blood capillaries vs. brain parenchyma. […]

[7] = In vivo BBB penetration of Cy5-tagged peptides, 3D deconvolution fluorescence microscopy; details: mice, IV, Cy5 conjugates

Row | Substance | Abluminal vs. luminal [1] | Abluminal vs. total [1] | Ablum 120:Area [2] | Lum 120:Area [2] | presence of MTf fragments on the abluminal side [2] | Ablum 120:Area [3] | Lum 120:Area [3] | further results
1 | VPAHAVVVR | 2.49% | 1.52% | 1.24E+08 | 3.48E+07 | identified in the abluminal medium |  |  | 
2 | GDSSGEGVCDKSPLER |  |  |  |  |  | 1.93E+09 | 5.08E+08 | 
3 | NYPSSLCALCVGDEQGR |  |  |  |  |  | 7.34E+07 | 6.15E+08 | 
4 | DSSHAFTLDELRYC [MTfp-Cy5] |  |  |  |  |  |  |  | VT ABVP (Volume of Parenchymal Test Article normalized to Parenchymal Volume), Mean [4]: 1.0 8E-03; fractional fluorescence in the brain parenchyma compared to mice injected with PBS or revMTfp-Cy5 [4]: Approximately two
5 | YYDYSGAFR | 0.13% | 0.05% | 6.41E+09 | 1.00E+09 | identified in the abluminal medium |  |  | 
6 | ADTDGGLIFR | 2.16% | 1.60% | 1.59E+10 | 1.11E+10 | identified in the abluminal medium |  |  | 
7 | EHGLKPVVGEVYDQEVGTSYYAVAVVRR |  |  |  |  |  | 1.70E+07 | 0.00E+00 | 
8 | TVGWNVPVGYLVESGR |  |  |  |  |  | 0.00E+00 | 9.38E+07 | 
9 | RLEDLTFAHSSDYC [revMTfp-Cy5, reference compound] |  |  |  |  |  |  |  | VT ABVP (Volume of Parenchymal Test Article normalized to Parenchymal Volume), Mean [4]: 6.6 7E-04
10 | AVSDYFGGSCVPGAGETSYSESLCR |  |  |  |  |  | 5.49E+08 | 5.51E+09 | 
11 | IQAEQVDAVTLSGEDIYTAGK |  |  |  |  |  | 0.00E+00 | 3.48E+06 | 
12 | LCRGDSSGEGVCDK |  |  |  |  |  | 2.64E+05 | 2.17E+05 | 
13 | ADVTEWR [ADVTEWR] | 1.32% | 0.82% | 1.05E+10 | 9.31E+08 | identified in the abluminal medium |  |  | 
14 | DSSHAFTLDELR [MTfp] | 2.41% | 1.90% | 5.87E+09 | 1.03E+10 | identified in the abluminal medium |  |  | initial rate of entry into the brain [5]: 2.1 nM/min; MTfp found in the early endosomes ([6]; EEA-1 marker): approximately 20%; MTfp found in the lysosomes ([6]; LAMP-1 marker): 40%; astrocytes expressing GFAP co-labeled with MTfp ([6]; fluorescence volume fraction): 70%; microglia expressing TMEM co-labeled with MTfp ([6]; fluorescence volume fraction): 80%; neurons expressing NeuN co-labeled with MTfp ([6]; fluorescence volume fraction): 90%; BBB penetration efficiency compared with RVGp [7]: statistically similar
15 | ADTDGGLIFRLLNEGQR |  |  |  |  |  | 0.00E+00 | 3.69E+07 | 
16 | DSSHAFTLDELRGK |  |  |  |  |  | 1.99E+07 | 0.00E+00 | 

Source: article PMC8212695, “Discovery of a Highly Conserved Peptide in the Iron Transporter Melanotransferrin that Traverses an Intact Blood Brain Barrier and Localizes in Neural Cells” (Frontiers in Neuroscience, 2021)
